Test results reported in patent US20150105252A1, “SUBSTITUTED PYRAZOLES AS HERBICIDES” (E I DU PONT DE NEMOURS AND COMPANY, priority 2013, published 2015).

Tests used:
bluegrass = assay: Test D preemergence; format: in vivo, Poa annua; conditions: for Plant response rating, Bluegrass: Preemergence, scale 0 to 100
Source text: (§1) Seeds of plant species selected from bluegrass (annual bluegrass, Poa annua), blackgrass (Alopecurus myosuroides), canarygrass (littleseed canarygrass, Phalaris minor), chickweed (common chickweed, Stellaria media), galium (catchweed bedstraw, Galium aparine), bromegrass, downy (downy bromegrass, Bromus tectorum), field poppy (Papaver rhoeas), field violet (Viola arvensis), foxtail, green (green foxtail, Setaria viridis), deadnettle (henbit deadnettle, Lamium amplexicaule), ryegrass, Italian (Italian ryegrass, Lolium multiflorum), kochia (Kochia scoparia), lambsquarters (Chenopodium album), oilseed rape (Brassica napus), pigweed (redroot pigweed, Amaranthus retroflexus), chamomile (scentless chamomile, Matricaria inodora), speedwell (bird's-eye speedwell, Veronica persica), barley, spring (spring barley, Hordeum vulgare), wheat, spring (spring wheat, Triticum aestivum), buckwheat, wild (wild buckwheat, Polygonum convolvulus), mustard, wild (wild mustard, Sinapis arvensis), oat, wild (wild oat, Avena fatua), radish, wild (wild radish, Raphanus raphanistrum), windgrass (Apera spica-venti), Russian thistle (Salsola kali), barley, winter (winter barley, Hordeum vulgare), and wheat, winter (winter wheat, Triticum aestivum) were planted into a silt loam soil and treated preemergence with test chemicals formulated in a non-phytotoxic solvent mixture which included a surfactant.
(§2) At the same time, these species were planted in pots containing Redi-Earth® planting medium (Scotts Company, 14111 Scottslawn Road, Marysville, Ohio 43041) comprising spaghnum peat moss, vermiculite, wetting agent and starter nutrients and treated with postemergence applications of the test chemicals formulated in the same manner. Plants ranged in height from 2 to 18 cm (1- to 4-leaf stage). Treated plants and controls were maintained in a controlled growth environment for 14 to 21 days after which time all species were compared to controls and visually evaluated. Plant response ratings, summarized in Table D, are based on a scale of 0 to 100 where 0 is no effect and 100 is complete control. A dash (-) response means no test result.

field violet = assay: Test D preemergence; format: in vivo, Viola arvensis; conditions: for Plant response rating, Field Violet: Preemergence, scale 0 to 100
Source text: as §1, §2

kochia [1] = assay: Test D preemergence; format: in vivo, Kochia scoparia; conditions: for Plant response rating, Kochia: Preemergence, scale 0 to 100
Source text: as §1, §2

lambsquarters [2] = assay: Test D preemergence; format: in vivo, Chenopodium album; conditions: for Plant response rating, Lambsquarters: Preemergence, scale 0 to 100
Source text: as §1, §2

pigweed = assay: Test D preemergence; format: in vivo, Amaranthus retroflexus; conditions: Preemergence, scale 0 to 100
Source text: as §1, §2

chamomile = assay: Test D preemergence; format: in vivo, Matricaria inodora; conditions: for Plant response rating, Chamomile: Preemergence, scale 0 to 100
Source text: as §1, §2

barley, spring = assay: Test D preemergence; format: in vivo, Hordeum vulgare; conditions: for Plant response rating, Barley, Spring: Preemergence, scale 0 to 100
Source text: as §1, §2

barley, winter = assay: Test D preemergence; format: in vivo, Hordeum vulgare; conditions: for Plant response rating, Barley, Winter: Preemergence, scale 0 to 100
Source text: as §1, §2

mustard, wild = assay: Test D preemergence; format: in vivo, Sinapis arvensis; conditions: Preemergence, scale 0 to 100
Source text: as §1, §2

oat, wild [3] = assay: Test D preemergence; format: in vivo, Avena fatua; conditions: for Plant response rating, Oat, Wild: Preemergence, scale 0 to 100
Source text: as §1, §2

canarygrass = assay: Test D postemergence; format: in vivo, Phalaris minor; conditions: scale 0 to 100
Source text: as §1, §2

galium = assay: Test D postemergence; format: in vivo, Galium aparine; conditions: scale 0 to 100
Source text: as §1, §2

bromegrass, downy = assay: Test D postemergence; format: in vivo, Bromus tectorum; conditions: scale 0 to 100
Source text: as §1, §2

foxtail, green = assay: Test D postemergence; format: in vivo, Setaria viridis; conditions: scale 0 to 100
Source text: as §1, §2

ryegrass, Italian = assay: Test D postemergence; format: in vivo, Lolium multiflorum; conditions: scale 0 to 100
Source text: as §1, §2

kochia [4] = assay: Test D postemergence; format: in vivo, Kochia scoparia; conditions: scale 0 to 100
Source text: as §1, §2

lambsquarters [5] = assay: Test D postemergence; format: in vivo, Chenopodium album; conditions: scale 0 to 100
Source text: as §1, §2

buckwheat, wild = assay: Test D postemergence; format: in vivo, Polygonum convolvulus; conditions: scale 0 to 100
Source text: as §1, §2

oat, wild [6] = assay: Test D postemergence; format: in vivo, Avena fatua; conditions: scale 0 to 100
Source text: as §1, §2

[7] = 16 g ai/ha, taken as preemergence

## CCc1cc(C(=O)NOC(C)C)nn1Cc1cccc(OC(F)(F)F)c1 [Compound 70]
bluegrass; [7]
  Plant response rating (scale 0 to 100), Bluegrass: 0
bluegrass; 31 g ai/ha
  Plant response rating, Bluegrass: 0
bluegrass; 62 g ai/ha
  Plant response rating, Bluegrass: 0
bluegrass; 125 g ai/ha
  Plant response rating, Bluegrass: 0
bluegrass; 250 g ai/ha
  Plant response rating, Bluegrass: 10
Field violet; [7]
  Plant response rating (scale 0 to 100), Field Violet: 0
Field violet; 31 g ai/ha
  Plant response rating, Field Violet: 0
Field violet; 62 g ai/ha
  Plant response rating, Field Violet: 0
Field violet; 125 g ai/ha
  Plant response rating, Field Violet: 50
Field violet; 250 g ai/ha
  Plant response rating, Field Violet: 50
Kochia [1]; [7]
  Plant response rating (scale 0 to 100), Kochia: 0
Kochia [1]; 31 g ai/ha
  Plant response rating, Kochia: 10
Kochia [1]; 62 g ai/ha
  Plant response rating, Kochia: 20
Kochia [1]; 125 g ai/ha
  Plant response rating, Kochia: 30
Kochia [1]; 250 g ai/ha
  Plant response rating, Kochia: 50
Lambsquarters [2]; [7]
  Plant response rating (scale 0 to 100), Lambsquarters: 0
Lambsquarters [2]; 31 g ai/ha
  Plant response rating, Lambsquarters: 0
Lambsquarters [2]; 62 g ai/ha
  Plant response rating, Lambsquarters: 0
Lambsquarters [2]; 125 g ai/ha
  Plant response rating, Lambsquarters: 100
Lambsquarters [2]; 250 g ai/ha
  Plant response rating, Lambsquarters: 100
pigweed; 62 g ai/ha
  Plant response rating, Pigweed: 0
pigweed; 250 g ai/ha
  Plant response rating, Pigweed: 75
chamomile; [7]
  Plant response rating (scale 0 to 100), Chamomile: 0
chamomile; 31 g ai/ha
  Plant response rating, Chamomile: 0
chamomile; 62 g ai/ha
  Plant response rating, Chamomile: 0
chamomile; 125 g ai/ha
  Plant response rating, Chamomile: 15
chamomile; 250 g ai/ha
  Plant response rating, Chamomile: 40
barley, spring; 16 g ai/ha, taken as preemergence, 0 = no effect, 100 = complete control
  Plant response rating (scale 0 to 100), Barley, Spring: 0
barley, spring; 31 g ai/ha
  Plant response rating, Barley, Spring: 0
barley, spring; 62 g ai/ha
  Plant response rating, Barley, Spring: 0
barley, spring; 125 g ai/ha
  Plant response rating, Barley, Spring: 0
barley, spring; 250 g ai/ha
  Plant response rating, Barley, Spring: 15
barley, winter; [7]
  Plant response rating (scale 0 to 100), Barley, Winter: 0
barley, winter; 31 g ai/ha
  Plant response rating, Barley, Winter: 0
barley, winter; 62 g ai/ha
  Plant response rating, Barley, Winter: 0
barley, winter; 125 g ai/ha
  Plant response rating, Barley, Winter: 0
barley, winter; 250 g ai/ha
  Plant response rating, Barley, Winter: 10
mustard, wild; 31 g ai/ha
  Plant response rating, Mustard, Wild: 0
mustard, wild; 62 g ai/ha
  Plant response rating, Mustard, Wild: 100
mustard, wild; 125 g ai/ha
  Plant response rating, Mustard, Wild: 100
mustard, wild; 250 g ai/ha
  Plant response rating, Mustard, Wild: 100
oat, wild [3]; [7]
  Plant response rating (scale 0 to 100), Oat, Wild: 0
oat, wild [3]; 31 g ai/ha
  Plant response rating, Oat, Wild: 0
oat, wild [3]; 62 g ai/ha
  Plant response rating, Oat, Wild: 0
oat, wild [3]; 125 g ai/ha
  Plant response rating, Oat, Wild: 5
oat, wild [3]; 250 g ai/ha
  Plant response rating, Oat, Wild: 30
canarygrass; Postemergence, 16 g ai/ha
  Plant response rating, Canarygrass: 0
canarygrass; Postemergence, 31 g ai/ha
  Canarygrass plant response rating: 0
canarygrass; Postemergence, 125 g ai/ha
  Canarygrass plant response rating: 0
canarygrass; Postemergence, 250 g ai/ha
  Canarygrass plant response rating: 10
canarygrass; postemergence, 62 g ai/ha
  Canarygrass plant response rating: 0
galium; Postemergence, 16 g ai/ha
  Plant response rating, Galium: 50
galium; Postemergence, 31 g ai/ha
  Galium plant response rating: 60
galium; Postemergence, 125 g ai/ha
  Galium plant response rating: 75
galium; Postemergence, 250 g ai/ha
  Galium plant response rating: 80
galium; postemergence, 62 g ai/ha
  Galium plant response rating: 70
bromegrass, downy; Postemergence, 16 g ai/ha
  Plant response rating, Bromegrass, Downy: 0
bromegrass, downy; Postemergence, 31 g ai/ha
  Bromegrass, Downy plant response rating: 0
bromegrass, downy; Postemergence, 125 g ai/ha
  Bromegrass, Downy plant response rating: 0
bromegrass, downy; Postemergence, 250 g ai/ha
  Bromegrass, Downy plant response rating: 10
bromegrass, downy; postemergence, 62 g ai/ha
  Bromegrass, Downy plant response rating: 0
foxtail, green; Postemergence, 16 g ai/ha
  Plant response rating, Foxtail, Green: 0
foxtail, green; Postemergence, 31 g ai/ha
  Foxtail, Green plant response rating: 15
foxtail, green; Postemergence, 125 g ai/ha
  Foxtail, Green plant response rating: 30
foxtail, green; Postemergence, 250 g ai/ha
  Foxtail, Green plant response rating: 60
foxtail, green; postemergence, 62 g ai/ha
  Foxtail, Green plant response rating: 0
ryegrass, Italian; Postemergence, 16 g ai/ha
  Plant response rating, Ryegrass, Italian: 0
ryegrass, Italian; Postemergence, 31 g ai/ha
  Ryegrass, Italian plant response rating: 0
ryegrass, Italian; Postemergence, 125 g ai/ha
  Ryegrass, Italian plant response rating: 10
ryegrass, Italian; Postemergence, 250 g ai/ha
  Ryegrass, Italian plant response rating: 15
ryegrass, Italian; postemergence, 62 g ai/ha
  Ryegrass, Italian plant response rating: 0
Kochia [4]; Postemergence, 16 g ai/ha
  Plant response rating, Kochia: 40
Kochia [4]; Postemergence, 31 g ai/ha
  Kochia plant response rating: 85
Kochia [4]; Postemergence, 125 g ai/ha
  Kochia plant response rating: 98
Kochia [4]; Postemergence, 250 g ai/ha
  Kochia plant response rating: 95
Kochia [4]; postemergence, 62 g ai/ha
  Kochia plant response rating: 70
Lambsquarters [5]; Postemergence, 16 g ai/ha
  Plant response rating, Lambsquarters: 80
Lambsquarters [5]; Postemergence, 31 g ai/ha
  Lambsquarters plant response rating: 85
Lambsquarters [5]; Postemergence, 125 g ai/ha
  Lambsquarters plant response rating: 98
Lambsquarters [5]; Postemergence, 250 g ai/ha
  Lambsquarters plant response rating: 98
Lambsquarters [5]; postemergence, 62 g ai/ha
  Lambsquarters plant response rating: 98
buckwheat, wild; Postemergence, 16 g ai/ha
  Plant response rating, Buckwheat, Wild: 10
buckwheat, wild; Postemergence, 31 g ai/ha
  Buckwheat, Wild plant response rating: 20
buckwheat, wild; Postemergence, 125 g ai/ha
  Buckwheat, Wild plant response rating: 20
buckwheat, wild; Postemergence, 250 g ai/ha
  Buckwheat, Wild plant response rating: 35
buckwheat, wild; postemergence, 62 g ai/ha
  Buckwheat, Wild plant response rating: 20
oat, wild [6]; Postemergence, 16 g ai/ha
  Plant response rating, Oat, Wild: 0
oat, wild [6]; Postemergence, 31 g ai/ha
  Oat, Wild plant response rating: 0
oat, wild [6]; Postemergence, 125 g ai/ha
  Oat, Wild plant response rating: 0
oat, wild [6]; Postemergence, 250 g ai/ha
  Oat, Wild plant response rating: 10
oat, wild [6]; postemergence, 62 g ai/ha
  Oat, Wild plant response rating: 0
